Several values for one entry are separate records, joined by “and”; a condition that tells them apart may be missing. Identical values can stand only once. Like-named read-outs stand apart in the source and are kept apart here.

This is an account of results in article PMC11637378, “Optogenetic screening of MCT1 activity implicates a cluster of non-steroidal anti-inflammatory drugs (NSAIDs) as inhibitors of lactate transport” (PLOS ONE, 2024).

Data set [1] deals with parent strain (SAWy518).
The subject of data set [2] is MCT1. The settings on record: cited from earlier work; for MCT1 inhibitor annotation: NOTES/Group column, ref not given.
The conditions of data set [3]: cited from earlier work.
In data set [4] the test system is parent strain (SAWy518). The data set is described as follows: Off-target control in IC50 determination: growth of light-insensitive parent strain at each inhibitor concentration. Type of data set: cell-based, Saccharomyces cerevisiae. To be noted: at the dosages used in this study.
Data set [5] concerns parent strain (SAWy518). The data set is described as follows: microbe, parasite or virus in culture. Details: species or system Saccharomyces cerevisiae SAWy518; Off-target growth counter-screen, OD600 as per cent of untreated wells, strain lacking MCT1. The settings on record: 18.5 h; sheet Primary Screen - final;; off-target growth of parent strain, about 18 h.
The test system of data set [6] is cancer cell growth. The settings on record: cited from earlier work.

For the compound `O=C(O)Cc1ccccc1Nc1c(Cl)cccc1Cl` [Diclofenac, reference compound], in data set [1], the OffScreen_percentage came to 100.855 percentage, the Offscreen_18hr is 0.8139, the Offscreen_24hr came out at 0.8825 and the Offscreen_42hr is 0.9387. The Read_percentage in data set [1] came out at 100.855 percentage. Moreover, the IC50 in data set [2] (read-out: previously reported inhibition value for MCT1 (IC50)) is 1.4 µM. Also, in data set [3] (150–200 mg daily), the blood-plasma concentration was 6.1 µM.

Regarding `CC(C(=O)O)c1cccc(C(=O)c2ccccc2)c1` (stereo not shown) [Ketoprofen], the off-target toxicity result in data set [4] is on record as “do not exhibit off-target toxicity”.

Regarding `O=C(CCc1ccc(O)cc1)c1c(O)cc(O)cc1O` [Phloretin], in data set [1], the OffScreen_percentage was determined as 94.4238 percentage, the Offscreen_18hr is 0.762, the Offscreen_24hr is 0.892 and the Offscreen_42hr is recorded as 0.9541. Also, in data set [1], the Read_percentage was determined as 94.4238 percentage. In data set [2] (library annotation), the MCT1 inhibitor annotation result is “MCT1 inhibitor”. Moreover, in data set [5], the viability at 10 µM is 94.4%.

In the case of `CN1C(C(=O)Nc2ccccn2)=C(O)c2ccccc2S1(=O)=O` [Piroxicam, reference compound], in data set [1], the OffScreen_percentage stood at 95.2292 percentage; the Offscreen_18hr was 0.7685 and 0.7781; the Offscreen_24hr is 0.8625 and 0.86; the Offscreen_42hr was 0.9267 and 0.9178. For the same compound, the Read_percentage in data set [1] is 95.2292 percentage. The blood-plasma concentration in data set [3] (20 mg/day) was 16 to 20 µM. The “concentrations of in vitro anticancer activity” value in data set [6] is 25 to 30 µM.

Turning to `O=c1c(O)c(-c2ccc(O)c(O)c2)oc2cc(O)cc(O)c12` [Quercetin (Sophoretin)], in data set [1], the Offscreen_18hr turned out to be 0.7827, the Offscreen_24hr came out at 0.8834 and the Offscreen_42hr is 0.9444. For the same compound, the “MCT1 inhibition (annotation)” value in data set [2] (library annotation) is recorded as “PI3K, PKC, Src, Sirtuin inhibitor, MCT1 inhibitor - flavanoid”.

As to `O=c1c(O)c(-c2ccc(O)c(O)c2)oc2cc(O)cc(O)c12` [Quercetin dihydrate], in data set [1], the Offscreen_18hr was found to be 0.7753, the Offscreen_24hr is recorded as 0.8789 and the Offscreen_42hr worked out at 0.9377. The “MCT1 inhibition (annotation)” value in data set [2] (library annotation) is “Known MCT1 inhibitor, PI3-K and PDE inhibitor (flavanoid)”.

As for `O=c1c(O)c(-c2ccc(O)c(O)c2)oc2cc(O)cc(O)c12` [Quercetin, reference compound], in data set [1], the OffScreen_percentage is recorded as 96.0719 percentage, the Offscreen_18hr worked out at 0.7753, the Offscreen_24hr was determined as 0.8789 and the Offscreen_42hr was 0.9377. For the same compound, in data set [1], the Read_percentage is listed as 96.0719 percentage. In data set [2] (library annotation), the MCT1 inhibitor annotation entry is “Known MCT1 inhibitor, PI3-K and PDE inhibitor (flavanoid)”; the “Known MCT1 inhibitor” value is “Known MCT1 inhibitor, PI3-K and PDE inhibitor (flavanoid)”.

On to `CC1=C(CC(=O)O)c2cc(F)ccc2/C1=C\c1ccc([S+](C)[O-])cc1` (stereo not shown) [Sulindac, reference compound], for which the off-target toxicity entry in data set [4] is on record as “do not exhibit off-target toxicity”. Moreover, in data set [1], the OffScreen_percentage came out at 103.073 percentage, the Offscreen_18hr is reported as 0.8318, the Offscreen_24hr came to 0.9131 and the Offscreen_42hr is 0.9739. For the same compound, the Read_percentage in data set [1] came out at 103.073.

For the compound `O=[N+]([O-])c1ccc(CNc2nc(NCc3cccc(C(F)(F)F)c3)nc3[nH]cnc23)cc1` [TNP], in data set [1], the OffScreen_percentage came to 99.4919 percentage, the Offscreen_18hr is 0.8029, the Offscreen_24hr worked out at 0.895 and the Offscreen_42hr worked out at 0.9464. Further, the Read_percentage in data set [1] worked out at 99.4919. Further, the viability at 10 µM in data set [5] was 99.5%.

As to `C=CC[C@@H]1/C=C(\C)C[C@H](C)C[C@H](OC)[C@H]2O[C@@](O)(C(=O)C(=O)N3CCCC[C@H]3C(=O)O[C@H](/C(C)=C/[C@@H]3CC[C@@H](O)[C@H](OC)C3)[C@H](C)[C@@H](O)CC1=O)[C@H](C)C[C@@H]2OC` [Tacrolimus], in data set [1], the OffScreen_percentage came to 90.0867 percentage; the Offscreen_18hr was 0.727 and 0.685; the Offscreen_24hr is 0.8973 and 0.8833; the Offscreen_42hr is 0.9661 and 0.9834. Besides, the Read_percentage in data set [1] is recorded as 90.0867. Also, the viability at 10 µM in data set [5] came to 90.1%.

For `CC/C(=C(\c1ccccc1)c1ccc(OCCN(C)C)cc1)c1ccccc1.O=C(O)CC(O)(CC(=O)O)C(=O)O` [Tamoxifen Citrate], in data set [1], the OffScreen_percentage worked out at 96.6419 percentage, the Offscreen_18hr amounted to 0.7799, the Offscreen_24hr was found to be 0.893 and the Offscreen_42hr was found to be 0.9507. Further, the Read_percentage in data set [1] was 96.6419. The viability at 10 µM in data set [5] was determined as 96.6%.

Consider `NCCS(=O)(=O)O` [Taurine], for which, in data set [1], the OffScreen_percentage was determined as 104.139 percentage, the Offscreen_18hr came to 0.8404, the Offscreen_24hr is 0.9173 and the Offscreen_42hr amounted to 0.9826. For the same compound, in data set [1], the Read_percentage is 104.139. For the same compound, in data set [5], the viability at 10 µM worked out at 104%.

In the case of `CCOC(=O)[C@@H](N)Cc1ccc(-c2cc(O[C@H](c3ccc(Cl)cc3-n3ccc(C)n3)C(F)(F)F)nc(N)n2)cc1.O=C(O)CNC(=O)c1ccccc1` [Telotristat Etiprate], in data set [1], the OffScreen_percentage was 96.9393 percentage, the Offscreen_18hr was found to be 0.7823, the Offscreen_24hr was found to be 0.9107 and the Offscreen_42hr worked out at 0.9681. In addition, in data set [1], the Read_percentage is listed as 96.9393. In addition, in data set [5], the viability at 10 µM amounted to 96.9%.

For `N#CC(=C(\N)Sc1ccccc1N)/C(C#N)=C(/N)Sc1ccccc1N` [U0126], in data set [1], the OffScreen_percentage came out at 91.0905 percentage, the Offscreen_18hr was found to be 0.7351, the Offscreen_24hr was found to be 0.8786 and the Offscreen_42hr came out at 0.95. The Read_percentage in data set [1] came to 91.0905. For the same compound, the viability at 10 µM in data set [5] was 91.1%.

Consider `COc1cc(C(=O)NS(=O)(=O)c2ccccc2C)ccc1Cc1cn(C)c2ccc(NC(=O)OC3CCCC3)cc12` [Zafirlukast], for which, in data set [1], the OffScreen_percentage stood at 103.829 percentage, the Offscreen_18hr was found to be 0.8379, the Offscreen_24hr is 0.9188 and the Offscreen_42hr came out at 0.9793. Besides, in data set [1], the Read_percentage was determined as 103.829. For the same compound, in data set [5], the viability at 10 µM is 104%.

Turning to `COc1c(O)cc2oc3cc(O)c(CC=C(C)C)c(O)c3c(=O)c2c1CC=C(C)C` [alpha-mangostin], in data set [1], the OffScreen_percentage was 89.9628 percentage, the Offscreen_18hr was 0.726, the Offscreen_24hr came out at 0.8801 and the Offscreen_42hr worked out at 0.9296. In data set [1], the Read_percentage is reported as 89.9628 percentage. Besides, the viability at 10 µM in data set [5] stood at 90%.

The IC50 is the concentration needed to halve the response being measured. Broadly, the viability is a read-out of living cells in per cent, often relative to untreated cells.
